According to article PMC5011932, “Comparative pharmacokinetics and pharmacodynamics of intravenous artelinate versus artesunate in uncomplicated Plasmodium coatneyi-infected rhesus monkey model” (Malaria Journal, 2016):
Where “and” joins values, the source holds several entries; their conditions need not be identical. Equal entries are not always repeated.

What was measured:
in vivo = details: rhesus monkey; for AUC(0-t) / AUC(0-inf) / clearance / Cmax / half-life: iv, 8 mg/kg; for clearance: Cl
Description: (§1) These doses were chosen as the minimal effective doses (from previous model development and validation studies, unpublished data) and blood was collected for pharmacokinetic analysis. After a week wash-out and recovery period, P. coatneyi (1 mL of >50,000 parasitized RBCs per microlitre or 5 × 10^6 RBC with a 1 % parasitaemia) were inoculated from a donor monkey into all the monkeys. The treatment was initiated at day 6 after inoculation at a parasitaemia ≥3 % or >200,000 parasites μL^−1 when the cohort of animals was minimally symptomatic. Drugs were given for 3 days with a loading dose initially followed by ½ of the first dose on the 2nd and 3rd days.
(§2) Blood was collected for pharmacokinetic/pharmacodynamics (PK/PD) analysis after the first dose only due to rapid clearance of artemisinin derivatives. Heparinized blood was collected at 0, 5, 20, 40 min, 1, 3, and 6 h post-dose and plasma samples were separated within 2 h by centrifugation (1500g, 10 min). Aliquots of samples were made for simultaneous measurement by HPLC [16] and bioassay [14], and stored at −80 °C until analysis. All glassware was silanized before use with a 0.5 % aqueous solution (v/v) of Pierce Aquasil (Rockford, IL, USA) according to the manufacturer’s recommended procedure. Solid-phase extraction was performed on C-18 elution cartridge (3.0 ml, J.T. Baker Co.) using a VAC ELUTE SPS24 sample processing station (Analytichem International, Harbour City, CA, USA). The cartridge was preconditioned by sequential washing with 2.5 ml acetonitrile, 2.5 ml methanol and 2.5 ml water. One ml of distilled water was added to the cartridge before adding plasma sample (0.5 ml). Then, the cartridge was washed with 2.5 ml distilled water, 2.5 ml of 0.05 % H3PO4 (pH 4.5) and 2.5 ml of 20 % acetonitrile and completely dried by closing the vacuum for 15 min. The analytes were collected by eluting with 0.5 ml methanol three times and then with 0.5 ml 90:10 n-butyl chloride: ethyl acetate twice. The organic phases were pooled. The combined organic phases were then evaporated to dryness under a stream of nitrogen at room temperature. Extraction residues were reconstituted with 50:50 ethanol: water (0.3 ml), at least 16 h before injection. The injection volume was 100 µl for all samples.
(§3) The plasma concentration of parent drugs, AL and AS, and their primary metabolites, DHA and 2-hydroxyartelinate (OHAL) respectively, were measured by HPLC with electrochemical detection in reductive mode (HPLC-ECD) [16], which was the only method for artemisinin compounds then (Additional files 1 and 2).
(§4) HPLC with reductive electrochemical detection was performed using a model BAS 200B liquid chromatography (Bioanalytical Systems, Inc., West Lafayette, Indiana, USA). A Nova-Pak® C18 (3.9 × 150 mm, Waters Corporation, Milford, MA, USA) was used with 40 % acetonitrile in sodium acetate buffer (pH 3.6) as mobile phase. Detection was performed using a thin dual-layer glassy carbon electrode run in parallel mode at a potential of −1.0 V versus Ag/AgCl. The system was operated at the following temperatures: mobile phase 35 °C, column and detector oven 30 °C, cell 31 °C with the flow rate of 1.5 mL min^−1. Artemisinin (ART) was used as an internal standard. Samples were injected via Gilson model 231 XL sampling injector equipped with a 100 µL loop, a Gilson model 401 dilutor/pipettor, a sampler controller keypad (Gilson Medical Electronics, Middleton, WI, USA), and a Valco electrically actuated switching valve (Valco Instrument Co. Inc) was used. This system automatically deoxygenated and injected sample, which permits the high sample throughput associated with automated injection. Data were acquired and analysed using a Millennium^32 Chromatography Manager (Waters Corporation, Milford, MA, USA).

[1] = rhesus monkey, in vivo
Description: as §1, §2, §3, §4

P. falciparum clone (W2) = experiment: Ex vivo Plasmodium falciparum-based bioassay (BA) of rhesus plasma, effect kinetics (ePD) as DHA equivalents; assay type: cell-based
Description: Blood was collected for pharmacokinetic/pharmacodynamics (PK/PD) analysis after the first dose only due to rapid clearance of artemisinin derivatives. Heparinized blood was collected at 0, 5, 20, 40 min, 1, 3, and 6 h post-dose and plasma samples were separated within 2 h by centrifugation (1500g, 10 min). Aliquots of samples were made for simultaneous measurement by HPLC [16] and bioassay [14], and stored at −80 °C until analysis.
The plasma anti-malarial activities of the artemisinin derivatives were measured using a previously published method [14]. […] After centrifugation, the supernatant (100 µL) was transferred to a 96-well flat bottom plate. Twofold serial dilutions were then made using heat inactivated pooled control serum (human:rhesus = 1:1). A suspension of malaria (W2 clone) infected erythrocytes was added to each well. The microtitre plate was placed into a gas-tight plexiglass chamber, flushed with a gas mixture of 90 % CO2, 5 % O2, and 5 % N2, and placed into an incubator (37 °C). Following 24 h incubation, the plate was removed from the chamber and pulsed with [^3H]-hypoxanthine solution to each well and incubated for another 18–20 h before harvesting. The incorporation of [^3H]-hypoxanthine by the parasites in each well was determined by counting in a scintillation counter.
A dose–response curve for each plasma sample was constructed by plotting [^3H]-hypoxanthine uptake on the Y-axis against the corresponding dilution factor on the X-axis after logarithmic transformation. The dilution factor value that inhibits parasite growth by 50 % (DF50) of each plasma sample was determined.

Plasmodium falciparum = test system: Plasmodium falciparum; parameters: method as in Newton, 2000 [22]; details: Human, 2 mg kg^−1 IV AS, ref Newton, 2000 [22], cited from earlier work
Plasmodium coatneyi = experiment: In vivo pharmacodynamics (parasite clearance) in uncomplicated P. coatneyi-infected splenectomized rhesus monkey model
Description: Twenty-two adult colony-born, Indian-origin rhesus macaques (Macaca mulatta) naïve monkeys were splenectomized and recovered well more than 1 month prior to entering the study. […] Twenty-two animals were randomized to two experiments of 11 monkeys. […] The control monkeys received intramuscular quinine treatment and the experimental animals received intravenous artemisinin candidates.
Based on our previous model validation, blood smears were performed to detect malaria parasites starting prior to inoculation on day 0 and continued daily (0700–0800 h). The monkeys were physically restrained in the squeeze cage restraint apparatus and approximately 0.1–0.2 ml whole blood was collected from each monkey by lancet puncture of the lateral auricular vein. Thick and thin smears were made on the same microscope glass slide and subsequently fixed in methanol and stained with Giemsa. When the smears were positive, white blood cell count (WBC) and/or red blood cell count (RBC) were also performed using automated haematology analyzer Sysmex K800 to calculate parasite density. Haematocrits were checked as needed. At study days 6–12, additional blood samples were obtained from all animals in the afternoon (1500–1600 h) to monitor parasitaemia levels. Daily blood smears were continued until two consecutive days with negative smears. Then the smear monitoring schedule was reduced to two times weekly for 2 weeks and then weekly for 6 weeks after completion of the last treatment.
Blood smear staining and parasitaemia determination took about 2 h. […] The control monkey received quinine treatment and the ten experimental animals received intravenous artemisinin derivative candidate.
After a week wash-out and recovery period, P. coatneyi (1 mL of >50,000 parasitized RBCs per microlitre or 5 × 10^6 RBC with a 1 % parasitaemia) were inoculated from a donor monkey into all the monkeys. The treatment was initiated at day 6 after inoculation at a parasitaemia ≥3 % or >200,000 parasites μL^−1 when the cohort of animals was minimally symptomatic. Drugs were given for 3 days with a loading dose initially followed by ½ of the first dose on the 2nd and 3rd days.
Blood smear were collected once daily in the morning. Once positive parasitaemia was observed and reached 2000 parasites μL^−1, blood smears were collected twice, in the morning and afternoon. Blood for slides preparation were collected from ear for thick and thin smear preparation. Blood films on glass slides were air dried, fixed with 100 % methanol, stained with Giemsa, and read under ×100 magnification oil emersion for parasite determination.
First, a thick smear was performed for parasite detection by reading the slides at least 50 fields under ×100 magnification oil emersion.

[2] = parameters: method as in PMID 2631113; details: rats, 1 h following IV administration; cited from earlier work
[3] = DHA equivalents, infected rhesus

concentration at 1 h (in vivo; Plasma concentration, mean): 0.05 µM
concentration at 3 h (in vivo; Plasma concentration, mean): 0 nM
concentration at 6 h (in vivo; Plasma concentration, mean): 0 nM
AUC(0-t) (in vivo; AUC 0-20): 4.78 µM·h
AUC(0-t) (in vivo; AUC0–20, parent compound (P)): 4.8 µM·h
AUC(0-t) (in vivo; AUC0–20, parent drug): 4.8 µM·h
AUC(0-inf) (in vivo; AUC0–∞, parent compound (P)): 4.8 µM·h
AUC(0-inf) (in vivo; AUC0–∞, parent drug): 4.8 µM·h
AUC(0-inf) (in vivo; AUC(0-inf)): 5.2 µM·h
clearance (in vivo): 78.3 mL/min/kg
clearance (in vivo; parent): 72.3 mL/min/kg
Cmax (in vivo; parent compound (P)): 28.2 µM
Cmax (in vivo; parent drug): 28.2 µM
half-life (in vivo; t1/2, parent compound (P)): 3.47 min
half-life (in vivo; t 1/2, z): 4.17 min
t1/2, metabolite (M) [1]: 31.1 min
Cl ([1]; iv, 8 mg/kg): 4.38 L hr^-1 kg ^-1
SMILES: C[C@H]1[C@H](OC(=O)CCC(=O)O)O[C@@H]2O[C@@]3(C)CC[C@H]4[C@H](C)CC[C@@H]1[C@@]24OO3 [IV AS, Artesunic acid]
Antimalarial activity expressed as DHA equi., mean (P. falciparum clone (W2); 0.08 h, healthy rhesus): 17.94 µmol/L
Antimalarial activity expressed as DHA equi., mean (P. falciparum clone (W2); 0.08 h, infected rhesus): 22.45 µmol/L
Antimalarial activity expressed as DHA equi., mean (P. falciparum clone (W2); 0.33 h, healthy rhesus): 5.77 µmol/L
Antimalarial activity expressed as DHA equi., mean (P. falciparum clone (W2); 0.33 h, infected rhesus): 4.28 µmol/L
Antimalarial activity expressed as DHA equi., mean (P. falciparum clone (W2); 0.67 h, healthy rhesus): 3.16 µmol/L
Antimalarial activity expressed as DHA equi., mean (P. falciparum clone (W2); 0.67 h, infected rhesus): 3.19 µmol/L
Antimalarial activity expressed as DHA equi., mean (P. falciparum clone (W2); 1.0 h, healthy rhesus): 1.75 µmol/L
Antimalarial activity expressed as DHA equi., mean (P. falciparum clone (W2); 1.0 h, infected rhesus): 1.58 µmol/L
Antimalarial activity expressed as DHA equi., mean (P. falciparum clone (W2); 3.0 h, healthy rhesus): 0.22 µmol/L
Antimalarial activity expressed as DHA equi., mean (P. falciparum clone (W2); 3.0 h, infected rhesus): 0.12 µmol/L
Antimalarial activity expressed as DHA equi., mean (P. falciparum clone (W2); 6.0 h, healthy rhesus): 0 µmol/L
Antimalarial activity expressed as DHA equi., mean (P. falciparum clone (W2); 6.0 h, infected rhesus): 0 µmol/L
AUC0–20, ePD (P. falciparum clone (W2); [3]): 242 µM·min
AUC0–∞, ePD (P. falciparum clone (W2); [3]): 485 µM·min
Bioactivity %AUC20 (P. falciparum clone (W2); mean, healthy rhesus): 48.3%
Bioactivity Cl (P. falciparum clone (W2); mean, healthy rhesus): 3.07 L hr^-1 kg ^-1
Bioactivity %AUC20 (P. falciparum clone (W2); mean, infected rhesus): 55.0%
Bioactivity (DHA equi.) AUC(0-inf) (P. falciparum clone (W2); mean, infected rhesus): 476 (346–607) µmole min L^-1
Bioactivity Cl (P. falciparum clone (W2); mean, infected rhesus): 3.18 (2.25–4.11) L hr^-1 kg ^-1
Bioactivity Cl (P. falciparum clone (W2); mean, infected rhesus, listed as I.V. AS/Na): 3.18 L hr^-1 kg ^-1
AUC (ePD) (Plasmodium falciparum; mean (95 % CI)): 636 (524–748) µmol min L^−1
Cl (ePD) (Plasmodium falciparum): 0.83 (0.70–0.96) L h^−1 kg^−1
Parasite/µL, mean (Plasmodium coatneyi; 0.29 day post-dose): 32,080 Parasite/µL
Parasite Reduction (Plasmodium coatneyi; 0.29 day post-dose, IV AS experiment (mean; IM QN = its control monkey)): 88.6%
Parasite/µL, mean (Plasmodium coatneyi; 1.00 day post-dose): 63,163 Parasite/µL
Parasite Reduction (Plasmodium coatneyi; 1.00 day post-dose, IV AS experiment): 81.1%
Parasite/µL, mean (Plasmodium coatneyi; 1.29 day post-dose): 9,364 Parasite/µL
Parasite Reduction (Plasmodium coatneyi; 1.29 day post-dose, IV AS experiment): 97.1%
Parasite/µL, mean (Plasmodium coatneyi; 2.00 day post-dose): 1,383 Parasite/µL
Parasite Reduction (Plasmodium coatneyi; 2.00 day post-dose, IV AS experiment): 99.4%
Parasite/µL, mean (Plasmodium coatneyi; 2.29 day post-dose): 345 Parasite/µL
Parasite Reduction (Plasmodium coatneyi; 2.29 day post-dose, IV AS experiment): 99.8%
Parasite/µL, mean (Plasmodium coatneyi; 3.00 day post-dose): 96 Parasite/µL
Parasite Reduction (Plasmodium coatneyi; 3.00 day post-dose, IV AS experiment): 100.0%
Parasite Reduction (Plasmodium coatneyi; 3.29 day post-dose, IV AS experiment): 99.9%
Parasite/µL, mean (Plasmodium coatneyi; 4.00 day post-dose): 66 Parasite/µL
Parasite Reduction (Plasmodium coatneyi; 4.00 day post-dose, IV AS experiment): 100.0%
Parasite/µL, mean (Plasmodium coatneyi; 4.29 day post-dose): 87 Parasite/µL
Parasite Reduction (Plasmodium coatneyi; 4.29 day post-dose, IV AS experiment): 100.0%
Parasite/µL, mean (Plasmodium coatneyi; 5.00 day post-dose): 60 Parasite/µL
Parasite Reduction (Plasmodium coatneyi; 5.00 day post-dose, IV AS experiment): 100.0%
Parasite/µL, mean (Plasmodium coatneyi; 5.29 day post-dose): 31 Parasite/µL
Parasite Reduction (Plasmodium coatneyi; 5.29 day post-dose, IV AS experiment): 100.0%
Parasite/µL, mean (Plasmodium coatneyi; 6.00 day post-dose): 13 Parasite/µL
Parasite Reduction (Plasmodium coatneyi; 6.00 day post-dose, IV AS experiment): 100.0%
Parasite/µL, mean (Plasmodium coatneyi; 6.29 day post-dose): 23 Parasite/µL
Parasite Reduction (Plasmodium coatneyi; 6.29 day post-dose, IV AS experiment): 100.0%
Parasite/µL, mean (Plasmodium coatneyi; 7.00 day post-dose): 15 Parasite/µL
Parasite Reduction (Plasmodium coatneyi; 7.00 day post-dose, IV AS experiment): 100.0%
Parasite/µL, mean (Plasmodium coatneyi; 8.00 day post-dose): 4 Parasite/µL
Parasite Reduction (Plasmodium coatneyi; 8.00 day post-dose, IV AS experiment): 100.0%
Parasite/µL, mean (Plasmodium coatneyi; 9.00 day post-dose): 2 Parasite/µL
Parasite Reduction (Plasmodium coatneyi; 9.00 day post-dose, IV AS experiment): 100.0%
Parasite/µL, mean (Plasmodium coatneyi; 10.00 day post-dose): 0 Parasite/µL
Parasite Reduction (Plasmodium coatneyi; 10.00 day post-dose, IV AS experiment): 100.0%
PCT of individual animals (Plasmodium coatneyi; IV AL: the only two determinable, IV AS: the two most rapid): 4.0 days and 5.0 days
Recrudescence, median (range, n) (Plasmodium coatneyi; in vivo): 13 (9–19, 10) days
R, Day (recrudescence day), mean (Plasmodium coatneyi; n 2 IV AL, n 10 IV AS): 13 days
PC50 (Plasmodium coatneyi; range in evaluable animals (4 of 8 IV AL, 3 of 10 IV AS)): 0.32 to 5.88 h
Median PCT of the remaining eight monkeys (Plasmodium coatneyi; without the two most rapid): 8.0 days
tissue levels [2]: high levels of AS were found in brain, fat, intestine and serum
